{
  "source": "paper PMC4923153",
  "about": "“Protection of Primary Dopaminergic Midbrain Neurons by GPR139 Agonists Supports Different Mechanisms of MPP^+ and Rotenone Toxicity” (Frontiers in Cellular Neuroscience, 2016)",
  "key": {"[1]": {"test_system": "differentiated SH-SY5Y neurons", "details": "24 h incubation; ref Giordano et al., 2012; cited from earlier work"}, "[2]": {"test_system": "primary DA midbrain neurons", "test": "Protection of primary DA midbrain neurons against 6-OHDA toxicity (TH-positive neuron count)", "format": "cell-based, mice", "details": "1 μM agonist 1 h, 0-50 μM 6-OHDA 24 h", "protocol": "(§1) Experiments were conducted in accordance with the ethical guidelines of H. Lundbeck A/S and the Danish legislation of animal use for scientific procedures. Cell culture was basically performed as described (Nagel et al., [2008]), with few modifications. […] Plates were stored at 4°C until tyrosine-hydroxylase-positive (TH-positive) neurons were counted using a Thermo Scientific Cellomics® ArrayScan® VTI HCS Reader. […] To ensure that only healthy primary cultures were assessed, we furthermore excluded experiments with total cell counts below Mean minus standard deviation (SD) of the summarized experiments. […]\nNeuronal midbrain cultures were pretreated with 1 μM of either one of the agonists compound 1 ( [drawing 9] ), compound 2 ( [drawing 10] ), or compound 3 ( [drawing 11] ), or vehicle ( [drawing 12] ) for 1 h, followed by treatment with the indicated concentrations of 6-hydroxydopamine (6-OHDA) for 24 h. TH-positive neurons were counted and normalized to control numbers."}, "[3]": {"test_system": "primary DA midbrain neurons", "test": "Protection of primary DA midbrain neurons against MPP+ toxicity (TH-positive neuron count)", "format": "cell-based, mice", "protocol": "Experiments were conducted in accordance with the ethical guidelines of H. Lundbeck A/S and the Danish legislation of animal use for scientific procedures. Cell culture was basically performed as described (Nagel et al., [2008]), with few modifications. Briefly, the mesencephalon floor was dissected from embryonic day (E) 13 mice, tissue pieces collected in HBBS, transferred to 0.1% trypsin, 0.05% DNAse (Sigma-Aldrich DN25–1G) and incubated at 37°C in a humidified atmosphere with 5% CO2 for 20 min; washed in DNAse, homogenized and centrifuged at 200× g, resuspended in medium (DMEM (Gibco 41965–039), 10% FCS, 1% P/S (Gibco, 15140–122), l.5% HEPES (Gibco, 15630–056), 1% Sodium Pyruvate (Gibco, 11360–039)) and plated on poly-L-lysine coated 96-well dishes. The medium was switched to neurobasal medium after 90 min (neurobasal (Gibco 21103–049) with 1% P/S, 2% B27 (Gibco, 17504–044), 1.25% 0.5 mM L-glutamine (Gibco, 25030–024)). After 6 days in vitro (DIV), cultures were treated with 1 μM of three different GPR139 agonists and in some experiments, concomitantly, with 10 μM of the antagonist for1 h, before exposing them to 0–1 μM MPP^+, 0–50 μM 6-OHDA or 0–100 nM rotenone for 24 h. For the MPP^+ treated cultures, it was also tested whether the effect of the GPR139 agonists could be blocked by concomitantly applying 10 μM GPR139 antagonist (IC50 3 μM). Subsequently, cells were fixed in 4% PFA/PBS for 10 min, washed with PBS, incubated in 0.5% BSA/0.1% Triton-X/5% porcine serum for 20 min, and incubated for 24 h in rabbit anti-tyrosine hydroxylase antibodies (1:1000 in PBS, Millipore AB152); washed 2 × 5 min in PBS. Secondary antibodies (Alexa 488 rabbit) were applied 1:200 in PBS with 0.2 μg/ml Hoechst dye for 1 h and washed 2 × 5 min in PBS. One drop of DAKO fluorescent mounting medium were applied into each well. Plates were stored at 4°C until tyrosine-hydroxylase-positive (TH-positive) neurons were counted using a Thermo Scientific Cellomics® ArrayScan® VTI HCS Reader. Results were normalized against control condition and compared. Experiments were only included in the evaluation if at least 30% cell death was induced at the highest toxin concentration compared to non-treated control wells. To ensure that only healthy primary cultures were assessed, we furthermore excluded experiments with total cell counts below Mean minus standard deviation (SD) of the summarized experiments. […]\nTo examine whether GPR139 agonists protect against toxin-induced DA cell death, we first treated cultured DA midbrain neurons with the GPR139 agonists and MPP^+ . Subsequently, we determined survival of TH-positive neurons.\nFigure 8 Three different GPR139 surrogate agonists protect primary dopaminergic (DA) midbrain neurons against 1-methyl-4-phenyl-pyridinium ionMPP^+ toxicity. […] TH-positive neurons were counted and normalized to numbers under control conditions. […] Each data point is calculated from 12 (0 μM and 1 μM MPP^+ concentrations); 4 (0.125 μM); 7 (0.25 μM); or 8 (0.5 μM) independent measurements.\nPrimary midbrain cultures were pretreated with the indicated amount of GPR139 agonist compound 3 and with either vehicle ( [drawing 5] ), or 1 μM MPP^+ ( [drawing 6] ); or MPP^+ with 10 μM of the antagonist compound 4 ( [drawing 7] ), or with the antagonist compound 4 alone ( [drawing 8] ). The number of TH-positive neurons was determined 24 h later and normalized to control conditions. […]"}, "[4]": {"test_system": "primary DA midbrain neurons", "test": "Protection of primary DA midbrain neurons against rotenone toxicity (TH-positive neuron count)", "format": "cell-based, mice", "details": "1 μM agonist 1 h, 0-100 nM rotenone 24 h, n = 4", "protocol": "as §1\nMesencephalic cultures were treated with 1 μM of either one of the GPR139 agonists compound 1 ( [drawing 13] ), compound 2 ( [drawing 14] ), or compound 3 ( [drawing 15] ), or vehicle ( [drawing 16] ) for 1 h before exposing them to 0–100 nM of rotenone. […] TH-positive neurons were counted and normalized to control numbers (100%)."}, "[5]": {"molecular_target": "norepinephrine transporter (Homo sapiens, UniProt P23975)", "sequence (P23975 whole entry, species assumed)": "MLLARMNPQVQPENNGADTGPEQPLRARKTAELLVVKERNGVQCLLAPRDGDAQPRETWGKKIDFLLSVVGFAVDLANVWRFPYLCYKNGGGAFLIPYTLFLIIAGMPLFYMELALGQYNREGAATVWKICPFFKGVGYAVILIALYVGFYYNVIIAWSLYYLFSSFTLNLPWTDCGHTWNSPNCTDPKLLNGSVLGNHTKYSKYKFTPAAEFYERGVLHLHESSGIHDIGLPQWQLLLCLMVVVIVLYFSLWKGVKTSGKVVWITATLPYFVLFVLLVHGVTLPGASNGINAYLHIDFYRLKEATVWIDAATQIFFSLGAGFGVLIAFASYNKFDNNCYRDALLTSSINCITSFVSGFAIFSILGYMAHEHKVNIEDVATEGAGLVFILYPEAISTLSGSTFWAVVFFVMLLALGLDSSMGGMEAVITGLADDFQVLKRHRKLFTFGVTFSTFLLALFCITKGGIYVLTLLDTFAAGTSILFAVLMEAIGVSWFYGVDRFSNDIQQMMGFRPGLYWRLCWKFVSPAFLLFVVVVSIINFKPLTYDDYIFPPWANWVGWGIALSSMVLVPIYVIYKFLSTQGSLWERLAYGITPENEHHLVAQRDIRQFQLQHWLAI", "design": "method as in Shi et al., 2011", "details": "10 μM; ref Shi et al., 2011; cited from earlier work"}, "human GPR139 receptor [6]": {"molecular_target": "T1, human GPR139 receptor (Homo sapiens, UniProt Q6DWJ6)", "T1 construct": "expressed in transfected cells; host or cells: CHO-K1", "T1 sequence (Q6DWJ6 1-353)": "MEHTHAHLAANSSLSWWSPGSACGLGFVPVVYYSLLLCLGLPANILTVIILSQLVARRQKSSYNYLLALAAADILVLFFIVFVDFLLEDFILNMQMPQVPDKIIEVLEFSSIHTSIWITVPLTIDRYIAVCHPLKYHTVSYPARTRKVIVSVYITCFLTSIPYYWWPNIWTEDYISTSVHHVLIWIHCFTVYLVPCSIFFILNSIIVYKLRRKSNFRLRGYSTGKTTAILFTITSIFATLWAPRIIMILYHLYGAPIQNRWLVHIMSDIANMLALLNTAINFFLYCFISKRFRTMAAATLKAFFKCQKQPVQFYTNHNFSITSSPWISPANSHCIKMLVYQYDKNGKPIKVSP", "design": "method as in Shi et al., 2011", "details": "Ca2+ mobilization; ref Shi et al., 2011; read-out: EC50 (GPR139 agonist); cited from earlier work"}, "[7]": {"design": "method as in Shi et al., 2011", "details": "ref Shi et al., 2011; cited from earlier work"}, "DAT": {"molecular_target": "DAT (Homo sapiens, UniProt Q01959)", "sequence (Q01959 whole entry, species assumed)": "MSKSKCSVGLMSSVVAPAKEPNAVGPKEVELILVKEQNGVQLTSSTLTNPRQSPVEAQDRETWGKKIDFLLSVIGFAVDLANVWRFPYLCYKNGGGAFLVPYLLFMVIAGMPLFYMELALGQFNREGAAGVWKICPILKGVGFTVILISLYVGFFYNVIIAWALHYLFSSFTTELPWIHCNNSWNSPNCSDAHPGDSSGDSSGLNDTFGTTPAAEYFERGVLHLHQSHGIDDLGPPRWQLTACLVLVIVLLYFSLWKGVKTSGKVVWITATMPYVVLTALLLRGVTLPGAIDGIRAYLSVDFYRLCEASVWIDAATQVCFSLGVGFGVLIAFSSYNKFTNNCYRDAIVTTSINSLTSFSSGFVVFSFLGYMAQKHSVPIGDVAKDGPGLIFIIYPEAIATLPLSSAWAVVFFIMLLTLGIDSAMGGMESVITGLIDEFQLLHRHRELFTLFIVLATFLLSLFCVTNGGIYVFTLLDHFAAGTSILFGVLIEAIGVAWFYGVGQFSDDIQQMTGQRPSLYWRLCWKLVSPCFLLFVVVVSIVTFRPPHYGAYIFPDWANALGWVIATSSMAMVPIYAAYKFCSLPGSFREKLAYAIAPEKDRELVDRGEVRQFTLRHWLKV", "design": "method as in Shi et al., 2011", "details": "10 μM; ref Shi et al., 2011; cited from earlier work"}, "[8]": {"test_system": "primary DA midbrain neurons", "format": "cell-based, mice", "details": "24 h", "protocol": "Experiments were conducted in accordance with the ethical guidelines of H. Lundbeck A/S and the Danish legislation of animal use for scientific procedures. Cell culture was basically performed as described (Nagel et al., [2008]), with few modifications. Briefly, the mesencephalon floor was dissected from embryonic day (E) 13 mice, tissue pieces collected in HBBS, transferred to 0.1% trypsin, 0.05% DNAse (Sigma-Aldrich DN25–1G) and incubated at 37°C in a humidified atmosphere with 5% CO2 for 20 min; washed in DNAse, homogenized and centrifuged at 200× g, resuspended in medium (DMEM (Gibco 41965–039), 10% FCS, 1% P/S (Gibco, 15140–122), l.5% HEPES (Gibco, 15630–056), 1% Sodium Pyruvate (Gibco, 11360–039)) and plated on poly-L-lysine coated 96-well dishes. The medium was switched to neurobasal medium after 90 min (neurobasal (Gibco 21103–049) with 1% P/S, 2% B27 (Gibco, 17504–044), 1.25% 0.5 mM L-glutamine (Gibco, 25030–024)). […] Plates were stored at 4°C until tyrosine-hydroxylase-positive (TH-positive) neurons were counted using a Thermo Scientific Cellomics® ArrayScan® VTI HCS Reader. […] To ensure that only healthy primary cultures were assessed, we furthermore excluded experiments with total cell counts below Mean minus standard deviation (SD) of the summarized experiments. […]"}, "human GPR139 receptor [9]": {"molecular_target": "T1, human GPR139 receptor", "test": "GPR139 calcium mobilization assay (CHO-K1 cells stably expressing the receptor)", "format": "cell-based", "details": "inhibition of agonist-induced stimulation (compound 1 at EC85); read-out: IC50 (GPR139 antagonist)", "protocol": "EC50 and IC50 for all compounds were determined as described (Shi et al., [2011]).\nAll compounds were further characterized using GPR139-based Ca^2+ mobilization assays (Figure 5).\nFigure 5 Additional characterization of GPR139 compounds using kinetic fluorescence measurements and concentration-response determination in calcium mobilization assays. (A–D) Examples for the kinetic of relative fluorescence units (RFU) for compound 1 and 4 and related controls, involving a two-step addition protocol. (A) Cellular fluorescence response to addition of buffer (approximately at time 0:00 min) and a second addition of buffer at 3:20 min. (B) Cellular fluorescence response to addition of the Ca^2+ ionophore and reference compound for complete release of Ca^2+ from intracellular stores, ionomycin. (C) Cellular response to addition of 10 μM compound 1 at time 0:00. (D) Cellular fluorescence in response to antagonist compound 4 (at 0:00, 50 μM) and addition of agonist compound 1 at EC85 concentration. […]\nStandard molecular cloning techniques were used to generate Chinese hamster ovary (CHO-K1) cells stably expressing the human GPR139 receptor. […] Calcium flux was measured using a Hamamatsu FDSS7000 imaging-based plate reader (Hamamatsu Photonics) using 480 nm excitation light and emitted fluorescent light passed through a 525 nm emission filter and detected by a CCD camera. […]"}, "SH-SY5Y cells": {"test_system": "SH-SY5Y cells", "design": "method as in Song et al., 2012", "details": "ref Song et al., 2012; cited from earlier work"}},
  "note": "Where “and” joins values, the source holds several entries; their conditions need not be identical. Identical values can stand only once. Like-named read-outs stand apart in the source and are kept apart here.",
  "data": [
    {"compound": "NCCc1cc(O)c(O)cc1O", "note": "[6-OHDA, 6-hydroxydopamine]", "values": [
      {"measurement": "concentration giving 50% cell death", "setting": "[1]", "result": 100, "unit": "µM"}
    ]},
    {"compound": "COc1cc(OC)cc(C(=O)NNC(=O)Nc2cccc3ccccc23)c1", "note": "[compound 1, 2-(3,5-Dimethoxybenzoyl)-N-(1-naphthyl)-hydrazinecarboxamide]", "values": [
      {"measurement": "protection against 6-OHDA toxicity", "setting": "[2]", "result": "do not protect"},
      {"measurement": "protection against MPP+ toxicity", "setting": "[3]; 1 μM agonist 1 h, 1 μM MPP+ 24 h, p ≤ 0.05 vs vehicle", "result": "significant"},
      {"measurement": "protection against rotenone toxicity", "setting": "[4]", "result": "do not protect"},
      {"measurement": "inhibition of binding to the norepinephrine transporter", "setting": "[5]", "result": "−8", "unit": "%"},
      {"measurement": "EC50", "setting": "human GPR139 receptor [6]", "result": 0.039, "unit": "µM"},
      {"measurement": "ADME properties for in vivo testing", "setting": "[7]", "result": "does not hold the ADME properties necessary for in vivo testing"},
      {"measurement": "inhibition of binding to the DAT", "setting": "DAT", "result": 4, "unit": "%"}
    ]},
    {"compound": "C=C(C)[C@H]1Cc2c(ccc3c2O[C@@H]2COc4cc(OC)c(OC)cc4[C@@H]2C3=O)O1", "note": "[rotenone]", "values": [
      {"measurement": "concentration giving 50% cell death", "setting": "[1]", "result": 0.005, "unit": "µM"},
      {"measurement": "average DA neuronal cell death", "setting": "[8]; 100 nM rotenone", "result": 60, "unit": "%"}
    ]},
    {"compound": "Cc1c(CC(Cl)(Cl)Cl)c2c(n1-c1ccc(F)cc1)CCCC2=O", "note": "[compound 4, 1-(4-Fluoro-phenyl)-2-methyl-3-(2,2,2-trichloro-ethyl)-1,5,6,7-tetrahydro-indol-4-one, reference compound]", "values": [
      {"measurement": "effect of antagonist on protection by the agonists against MPP+", "setting": "[3]; 10 μM antagonist co-applied with agonist, 1 μM MPP+", "result": "blocked the protective effect"},
      {"measurement": "effect of antagonist alone on DA cell survival", "setting": "[3]; 10 μM antagonist, no MPP+", "result": "did not have an effect"},
      {"measurement": "IC50", "setting": "human GPR139 receptor [9]", "result": "7.4 µM and 3 µM"}
    ]},
    {"compound": "COc1ccc(CCc2cc(OC)c(O)c(OC)c2)cc1OC", "note": "[Chrysotoxine]", "values": [
      {"measurement": "antagonism of MPP+ toxicity", "setting": "SH-SY5Y cells", "result": "could antagonize"},
      {"measurement": "antagonism of rotenone toxicity", "setting": "SH-SY5Y cells", "result": "not rotenone"}
    ]},
    {"compound": "C[n+]1ccc(-c2ccccc2)cc1", "note": "[MPP^+, 1-methyl-4-phenylpyridinium]", "values": [
      {"measurement": "concentration giving 50% cell death", "setting": "[1]", "result": 5000, "unit": "µM"},
      {"measurement": "average DA neuronal cell death", "setting": "[8]; 1 μM MPP+", "result": 40, "unit": "%"}
    ]}
  ]
}
